Laboratory results as given in ChEMBL document CHEMBL1201862, “PubChem BioAssay data set” (2004).
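Compound exposure: 48 hours, 5 concentrations, 96-well plates. Abbreviation: GI50, concentration required for 50% inhibition of growth.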 The source made the active and inactive calls. No stated cut-off is given here; in the data, active = GI50 up to about 1.1 µM and inactive = higher.

Assays:
Assay in all cases: NCI-60 cell line screen, 48 h
[1] = system: K562
[2] = system: NCI-H460
[3] = system: LOX IMVI
[4] = system: MDA-MB-435
[5] = system: HOP-92
[6] = system: SR
[7] = system: TK-10
[8] = system: PC-3
[9] = system: RPMI-8226
[10] = system: SK-MEL-5
[11] = system: SN12C
[12] = system: NCI/ADR-RES
[13] = system: SNB-75
[14] = system: HCT-116
[15] = system: SNB-19
[16] = system: NCI-H522
[17] = system: RXF 393

| Structure (SMILES) | GI50 [1] | GI50 [2] | GI50 [3] | GI50 [4] | GI50 [5] | GI50 [6] | GI50 [7] | GI50 [8] | GI50 [9] | GI50 [10] | GI50 [11] | GI50 [12] | GI50 [13] | GI50 [14] | GI50 [15] | GI50 [16] | GI50 [17] |
| --- | --- | --- | --- | --- | --- | --- | --- | --- | --- | --- | --- | --- | --- | --- | --- | --- | --- |
| CCOP(=O)(CN=C(c1ccccc1)c1ccccc1)OCC | > 100 µM (inactive) | > 100 µM (inactive) | > 100 µM (inactive) | > 100 µM (inactive) | > 100 µM (inactive) | > 100 µM (inactive) | > 100 µM (inactive) | > 100 µM (inactive) | > 100 µM (inactive) | > 100 µM (inactive) | > 100 µM (inactive) | > 100 µM (inactive) | > 100 µM (inactive) | > 100 µM (inactive) | > 100 µM (inactive) | > 100 µM (inactive) | – |
| CC(C)CC(N)C(=O)NC(CNC(CCC(N)=O)C(=O)NC(CC(C)C)C(=O)NC(CC(C)C)C(=O)O)Cc1ccc2ccccc2c1 (centres undefined) | > 10 µM (inactive) | > 10 µM (inactive) | > 10 µM (inactive) | > 10 µM (inactive) | > 10 µM (inactive) | > 10 µM (inactive) | > 10 µM (inactive) | > 10 µM (inactive) | > 10 µM (inactive) | > 10 µM (inactive) | > 10 µM (inactive) | > 10 µM (inactive) | > 10 µM (inactive) | > 10 µM (inactive) | > 10 µM (inactive) | – | > 10 µM (inactive) |
| COc1ccc(C2c3cc4c(cc3OC(NCCO)C2C)OCO4)cc1 (centres undefined) | 22.5 µM (inactive) | 22.8 µM (inactive) | 23.3 µM (inactive) | 23.6 µM (inactive) | 34.3 µM (inactive) | 19 µM (inactive) | 23.8 µM (inactive) | 23.4 µM (inactive) | 22.1 µM (inactive) | 19.8 µM (inactive) | 23.8 µM (inactive) | – | 19.6 µM (inactive) | 17.3 µM (inactive) | 28 µM (inactive) | 16.6 µM (inactive) | 23.2 µM (inactive) |
| Cc1nn(C)c2c1C(=O)N(C)CC(=O)N2C | > 100 µM (inactive) | > 100 µM (inactive) | – | > 100 µM (inactive) | > 100 µM (inactive) | > 100 µM (inactive) | > 100 µM (inactive) | > 100 µM (inactive) | > 100 µM (inactive) | > 100 µM (inactive) | > 100 µM (inactive) | – | > 100 µM (inactive) | > 100 µM (inactive) | > 100 µM (inactive) | > 100 µM (inactive) | > 100 µM (inactive) |
| CC(=O)OC1(C)C=CC(=O)C=C1 | 50.8 µM (inactive) | 25.9 µM (inactive) | 32.6 µM (inactive) | 29.9 µM (inactive) | 39 µM (inactive) | 32.7 µM (inactive) | 22.5 µM (inactive) | 27.4 µM (inactive) | 37.3 µM (inactive) | 40.2 µM (inactive) | 62.7 µM (inactive) | 6.3 µM (inactive) | 84.1 µM (inactive) | 80.2 µM (inactive) | 48.2 µM (inactive) | 10.8 µM (inactive) | – |
| CC(C)(C)[Si](C)(C)OCC1OC(n2cc(F)c(=O)[nH]c2=O)CC1O[Si](C)(C)C(C)(C)C (centres undefined) | 4.14 µM (inactive) | 2.4 µM (inactive) | 5.79 µM (inactive) | 12 µM (inactive) | – | 3.1 µM (inactive) | 2.84 µM (inactive) | 3.16 µM (inactive) | 3.5 µM (inactive) | 3.27 µM (inactive) | 2.89 µM (inactive) | 16 µM (inactive) | 4.03 µM (inactive) | 7.66 µM (inactive) | 12.4 µM (inactive) | 3.29 µM (inactive) | 4.42 µM (inactive) |
| COc1c(-c2ccc3c(c2)OCO3)oc2cc3c(c(OC)c2c1=O)OCO3 [MELITERNATIN] | 23.8 µM (inactive) | 14.4 µM (inactive) | 11.6 µM (inactive) | 17.6 µM (inactive) | 15.3 µM (inactive) | – | 25.5 µM (inactive) | 21.1 µM (inactive) | – | 18.4 µM (inactive) | 16 µM (inactive) | 27.6 µM (inactive) | 16.3 µM (inactive) | 16.2 µM (inactive) | 18.4 µM (inactive) | 21.5 µM (inactive) | 28.5 µM (inactive) |
| CC(=O)O[C@H]1C[C@@H](OC(C)=O)[C@@](C)(O)[C@@H]2[C@@H](OC(C)=O)[C@@]3(O)[C@H](/C=C(/CCl)[C@H]4O[C@H]4[C@@H](OC(C)=O)[C@@]12C)OC(=O)[C@@H]3C | > 25 µM (inactive) | > 25 µM (inactive) | 21.2 µM (inactive) | 19.7 µM (inactive) | > 25 µM (inactive) | – | > 25 µM (inactive) | > 25 µM (inactive) | 9.89 µM (inactive) | 22.3 µM (inactive) | > 25 µM (inactive) | > 25 µM (inactive) | > 25 µM (inactive) | > 25 µM (inactive) | > 25 µM (inactive) | > 25 µM (inactive) | 19.8 µM (inactive) |
| Cc1ccc(NC(=O)/C(=N/N(C)C)C(C2OC(=O)c3ccccc32)[N+](=O)[O-])cc1 (centres undefined) | > 100 µM (inactive) | > 100 µM (inactive) | > 100 µM (inactive) | > 100 µM (inactive) | > 100 µM (inactive) | – | > 100 µM (inactive) | > 100 µM (inactive) | > 100 µM (inactive) | > 100 µM (inactive) | > 100 µM (inactive) | > 100 µM (inactive) | > 100 µM (inactive) | > 100 µM (inactive) | – | – | > 100 µM (inactive) |
| Cc1c(Cl)c(=O)oc2cc(OCC(=O)c3ccccc3)ccc12 | > 100 µM (inactive) | > 100 µM (inactive) | – | > 100 µM (inactive) | 97.5 µM (inactive) | 2.7 µM (inactive) | 92 µM (inactive) | > 100 µM (inactive) | – | > 100 µM (inactive) | > 100 µM (inactive) | > 100 µM (inactive) | – | – | > 100 µM (inactive) | > 100 µM (inactive) | > 100 µM (inactive) |
| N#Cc1c(NC(=S)NC(=O)c2ccccc2)nc2c(c1-c1ccccc1)CCCC2 | > 100 µM (inactive) | > 100 µM (inactive) | > 100 µM (inactive) | > 100 µM (inactive) | – | > 100 µM (inactive) | > 100 µM (inactive) | > 100 µM (inactive) | > 100 µM (inactive) | 73.6 µM (inactive) | > 10 µM (inactive) | 51.6 µM (inactive) | 17.1 µM (inactive) | > 100 µM (inactive) | > 100 µM (inactive) | – | 17.8 µM (inactive) |
| O=C1C=C(Sc2ccccc2)c2nccc3c2c1nc1ccccc13 | 0.0234 µM (active) | 23.6 µM (inactive) | 11.8 µM (inactive) | 16.9 µM (inactive) | 17.9 µM (inactive) | 5.92 µM (inactive) | 31.1 µM (inactive) | 13.3 µM (inactive) | 28.1 µM (inactive) | – | 17.8 µM (inactive) | 21.8 µM (inactive) | 33.3 µM (inactive) | 15.1 µM (inactive) | 37.2 µM (inactive) | 2.33 µM (inactive) | – |
| O=C(Nc1ccccc1)OCCN=C1c2ccccc2C(Br)C(Br)c2ccccc21 (centres undefined) | 2.8 µM (inactive) | 12.1 µM (inactive) | 5.08 µM (inactive) | 7.93 µM (inactive) | 8.81 µM (inactive) | – | 4.48 µM (inactive) | 19.3 µM (inactive) | 4.37 µM (inactive) | 12.3 µM (inactive) | 11.1 µM (inactive) | 11.7 µM (inactive) | 13.3 µM (inactive) | 3.88 µM (inactive) | 14.9 µM (inactive) | 5.37 µM (inactive) | 3.93 µM (inactive) |
